# Results taken from US10681909B2, “Herbicidal triazoles” (FMC Corporation, priority 2014, dated 2020).
# What was measured:
# buckwheat, wild = assay: Test D preemergence; format: in vivo, Polygonum convolvulus; settings: for Plant response rating: Buckwheat, Wild: scale 0 to 100
# In short: (§1)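 Test compounds are formulated in a non-phytotoxic solvent with surfactant. They are applied to the soil surface right after seeding in silt loam, or sprayed onto plants 2 to 18 cm tall in peat-based potting medium. Response is judged by eye against controls after 14 to 21 d.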
# Russian thistle = assay: Test D postemergence; format: in vivo, Salsola kali; settings: scale 0 to 100
# From the text: Seeds of plant species selected from bluegrass (annual bluegrass, Poa annua), blackgrass (Alopecurus myosuroides), canarygrass (Phalaris minor), chickweed (common chickweed, Stellaria media), galium (catchweed bedstraw, Galium aparine), bromegrass, down (downy bromegrass, Bromus tectorum), Russian thistle (Salsola kali), field poppy (Papaver rhoeas), field violet (Viola arvensis), foxtail, green (green foxtail, Setaria viridis), deadnettle (henbit deadnettle, Lamium amplexicaule), ryegrass, Ital. (Italian ryegrass, Lolium multiflorum), kochia (Kochia scoparia), lambsquarters (Chenopodium album), oilseed rape (Brassica napus), pigweed (Amaranthus retroflexus), chamomile (scentless chamomile, Matricaria inodora), speedwell (bird's-eye speedwell, Veronica persica), barley, spring (spring barley, Hordeum vulgare), wheat, spring (spring wheat, Triticum aestivum), buckwheat, wild (wild buckwheat, Polygonum convolvulus), wild mustard (Sinapis arvensis), oat, wild (wild oat, Avena fatua), radish, wild (wild radish, Raphanus raphanistrum), […]), barley, winter (winter barley, Hordeum vulgare), and wheat, winter (winter wheat, Triticum aestivum) were planted into a silt loam soil and treated preemergence with test chemicals formulated in a non-phytotoxic solvent mixture which included a surfactant. At the same time, these species were planted in pots containing Sunshine Redi-Earth® planting medium comprising spaghnum peat moss, vermiculite, starter nutrients and dolomitic limestone and treated with postemergence applications of the test chemicals formulated in the same manner. Plants ranged in height from 2 to 18 cm (1- to 4-leaf stage). Treated plants and controls were maintained in a controlled growth environment for 14 to 21 d after which time all species were compared to controls and visually evaluated. […] A dash (-) response means no test result.
# deadnettle = assay: Test D preemergence; format: in vivo, Lamium amplexicaule; settings: for Plant response rating: Deadnettle: scale 0 to 100
# In short: as §1
# ryegrass, Ital. = assay: Test D postemergence; format: in vivo, Lolium multiflorum; settings: scale 0 to 100
# In short: as §1
# ryegrass, Italian = assay: Test C preemergence; format: in vivo, Lolium multiflorum; settings: for Ryegrass, Italian plant response rating (0 to 100): Preemergence, visual rating after 13 to 15 d; for Plant response rating (scale of 0 to 100 where 0 is no effect and 100 is complete control): Ryegrass, Italian, preemergence
# In short: (§2)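 Surfactant-containing, non-phytotoxic solvent formulations of each compound were applied either preemergence to seeds in a loam soil–sand blend or postemergence to plants 2 to 18 cm tall (1- to 4-leaf stage). Postemergence plants were grown in peat moss–vermiculite medium.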
# windgrass [1] = assay: Test D preemergence; format: in vivo, Apera spica-venti; settings: for Plant response rating: Windgrass: scale 0 to 100
# In short: as §1
# field violet = assay: Test D postemergence; format: in vivo, Viola arvensis; settings: scale 0 to 100
# In short: as §1
# wild mustard = assay: Test D postemergence; format: in vivo, Sinapis arvensis; settings: scale 0 to 100
# In short: as §1
# corn = assay: Test C preemergence; format: in vivo, Zea mays; settings: for Plant response rating (scale of 0 to 100 where 0 is no effect and 100 is complete control): Corn, preemergence; for Corn plant response rating (0 to 100): Preemergence, visual rating after 13 to 15 d
# In short: as §2
# kochia = assay: Test A preemergence; format: in vivo, Kochia scoparia; settings: 0 to 100 scale (0 no effect, 100 complete control)
# In short: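 Weed and crop species in loam–sand blend sprayed preemergence on soil or postemergence at 2–10 cm, one- to two-leaf stage, with chemicals in surfactant-containing solvent. Injury rated visually after ~10 d in greenhouse versus untreated controls on a 0–100 scale (100 = complete control).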
# soybean = assay: Test C preemergence; format: in vivo, Glycine max; settings: for Soybean plant response rating (0 to 100): Preemergence, visual rating after 13 to 15 d
# In short: as §2
# windgrass [2] = assay: Test D postemergence; format: in vivo, Apera spica-venti; settings: scale 0 to 100
# In short: as §1
# waterhemp = assay: Test C preemergence; format: in vivo, Amaranthus rudis; settings: for Waterhemp plant response rating (0 to 100): Preemergence, visual rating after 13 to 15 d
# In short: as §2
# [3] = 16 g ai/ha, 0 is no effect, 100 is complete control
smiles,measurement,setting,value
"CCOc1nc(-c2ccc(C(F)(F)F)cc2)nn1Cc1ccnc(C(F)(F)F)c1 [Compound 35, 4-[[5-ethoxy-3-[4-(trifluoromethyl)phenyl]-1H-1,2,4-triazole-1-yl]methyl]-2-(trifluoromethyl)pyridine]","Plant response rating (0 to 100), Buckwheat, Wild","buckwheat, wild; [3]",65
same,"Plant response rating: Buckwheat, Wild","buckwheat, wild; 31 g ai/ha",70
same,"Plant response rating: Buckwheat, Wild","buckwheat, wild; 62 g ai/ha",70
same,"Plant response rating: Buckwheat, Wild","buckwheat, wild; 125 g ai/ha",95
same,Plant response rating: Russian Thistle,Russian thistle; 16 g ai/ha,70
same,Plant response rating: Russian Thistle,Russian thistle; 31 g ai/ha,75
same,Plant response rating: Russian Thistle,Russian thistle; 62 g ai/ha,80
same,Plant response rating: Russian Thistle,Russian thistle; 125 g ai/ha,85
same,"Plant response rating (0 to 100), Deadnettle",deadnettle; [3],80
same,Plant response rating: Deadnettle,deadnettle; 31 g ai/ha,85
same,Plant response rating: Deadnettle,deadnettle; 62 g ai/ha,100
same,Plant response rating: Deadnettle,deadnettle; 125 g ai/ha,100
same,"Plant response rating: Ryegrass, Ital.","ryegrass, Ital.; 16 g ai/ha",30
same,"Plant response rating: Ryegrass, Ital.","ryegrass, Ital.; 31 g ai/ha",60
same,"Plant response rating: Ryegrass, Ital.","ryegrass, Ital.; 62 g ai/ha",65
same,"Plant response rating: Ryegrass, Ital.","ryegrass, Ital.; 125 g ai/ha",75
same,"Ryegrass, Italian plant response rating (0 to 100)","ryegrass, Italian; 31 g ai/ha",70
same,"Ryegrass, Italian plant response rating (0 to 100)","ryegrass, Italian; 62 g ai/ha",85
same,Plant response rating (scale of 0 to 100 where 0 is no effect and 100 is complete control),"ryegrass, Italian; 125 g ai/ha",90
same,Plant response rating (scale of 0 to 100 where 0 is no effect and 100 is complete control),"ryegrass, Italian; 250 g ai/ha",90
same,"Plant response rating (0 to 100), Windgrass",windgrass [1]; [3],70
same,Plant response rating: Windgrass,windgrass [1]; 62 g ai/ha,85
same,Plant response rating: Windgrass,windgrass [1]; 125 g ai/ha,100
same,Plant response rating: Field Violet,field violet; 16 g ai/ha,90
same,Plant response rating: Field Violet,field violet; 31 g ai/ha,100
same,Plant response rating: Field Violet,field violet; 62 g ai/ha,100
same,Plant response rating: Field Violet,field violet; 125 g ai/ha,100
same,"Plant response rating: Mustard, Wild",wild mustard; 16 g ai/ha,70
same,"Plant response rating: Mustard, Wild",wild mustard; 31 g ai/ha,100
same,"Plant response rating: Mustard, Wild",wild mustard; 62 g ai/ha,100
same,"Plant response rating: Mustard, Wild",wild mustard; 125 g ai/ha,100
same,Plant response rating (scale of 0 to 100 where 0 is no effect and 100 is complete control),corn; 125 g ai/ha,35
same,Plant response rating (scale of 0 to 100 where 0 is no effect and 100 is complete control),corn; 250 g ai/ha,45
same,Corn plant response rating (0 to 100),corn; 31 g ai/ha,5
same,Corn plant response rating (0 to 100),corn; 62 g ai/ha,15
same,"Plant response rating, Kochia",kochia; 31 g ai/ha,90
same,"Plant response rating, Kochia",kochia; 125 g ai/ha,90
same,Soybean plant response rating (0 to 100),soybean; 31 g ai/ha,20
same,Soybean plant response rating (0 to 100),soybean; 62 g ai/ha,15
same,Plant response rating (scale of 0 to 100 where 0 is no effect and 100 is complete control),"soybean; Soybean, preemergence, 250 g ai/ha",65
same,Plant response rating: Windgrass,windgrass [2]; 16 g ai/ha,55
same,Plant response rating: Windgrass,windgrass [2]; 31 g ai/ha,75
same,Plant response rating: Windgrass,windgrass [2]; 62 g ai/ha,80
same,Plant response rating: Windgrass,windgrass [2]; 125 g ai/ha,90
same,Waterhemp plant response rating (0 to 100),waterhemp; 31 g ai/ha,100
same,Waterhemp plant response rating (0 to 100),waterhemp; 62 g ai/ha,100
same,Plant response rating (scale of 0 to 100 where 0 is no effect and 100 is complete control),"waterhemp; Waterhemp, preemergence, 250 g ai/ha",100
